The values below are quoted from earlier work in US9173848B2, “Solid pharmaceutical fixed dose compositions comprising irbesartan and amlodipine, their preparation and their therapeutic application” (SANOFI, priority 2009, dated 2015).

Structures are written as SMILES.

For series [1] the following is noted: in vivo.

As for `CCOC(=O)C1=C(COCCN)NC(C)=C(C(=O)OC)C1c1ccccc1Cl` (stereo not shown) [Amlodipine besylate], the solubility in water entry was “slightly soluble”. Besides, the absolute bioavailability in series [1] was 64-90%.
On to `CCCCC1=NC2(CCCC2)C(=O)N1Cc1ccc(-c2ccccc2-c2nnn[nH]2)cc1` [Irbesartan, 2-n-butyl-4-spirocyclopentane-1-[(2′-(tetrazol-5-yl)biphenyl-4-yl)methyl]-2-imidazolin-5-one], for which the solubility in water result is on record as “insoluble”. Moreover, where the note is “parabolic pH solubility profile”, the “media of maximum solubility” value is 0.1 N HCl and pH 7.5 phosphate buffer.
